Experimental data from patent US8076487B2, “Pyridone derivative and herbicide” (Kumiai Chemical Industry Co., Ltd., priority 2006, dated 2011).

Legend:
Experiment in all cases: Test Example 1: herbicidal effect by soil application to paddy field
Type in all cases: in vivo
Settings in all cases: paddy field soil application; active ingredient 1,000 g per 1 hectare; wettable powder added dropwise to water surface the day after sowing; examined on the 21st day after application
[1] = tested on: Japanese bulrush (Scirpus juncoides Roxb.)
Source text: (§1) Test Example 1 Test on Herbicidal Effect by Soil Application to Paddy Field In a 100 cm2 plastic pot, paddy field soil was filled. After puddling and leveling, seeds of early watergrass (Echinochloa oryzicola […] (Monochoria vaginalis ([…] Japanese bulrush (Scirpus juncoides Roxb.) were sown, and water was filled to be flooded to a water depth of 3 cm. […] Then, on the 21st day after the application to the plants grew in a greenhouse, the herbicidal effect was examined in accordance with a standard shown in Table 34. [table]

[2] = tested on: early watergrass (Echinochloa oryzicola Vasing)
Source text: as §1

[3] = tested on: heartshape false pickerelweed (Monochoria vaginalis (Burm.f.) C.Presl)
Source text: as §1

| Compound | herbicidal effect, Scirpus juncoides Roxb. [1] | herbicidal effect, Echinochloa oryzicola Vasing [2] | herbicidal effect, Monochoria vaginalis (Burm. f.) C. Presl [3] |
| --- | --- | --- | --- |
| CCCS(=O)(=O)Oc1c(C(=O)c2ccc(C(F)(F)F)n(CC3CCCO3)c2=O)c(C)nn1C (stereo not drawn) [IV-239] | 5 (90% or more of herbicidal effect and crop phytotoxicity) | 5 (90% or more of herbicidal effect and crop phytotoxicity) | 5 (90% or more of herbicidal effect and crop phytotoxicity) |
| CCCS(=O)(=O)Oc1c(C(=O)c2ccc(C(F)(F)F)n(-c3cccc(S(C)(=O)=O)c3)c2=O)cnn1C [IV-75] | 5 (90% or more of herbicidal effect and crop phytotoxicity) | 5 (90% or more of herbicidal effect and crop phytotoxicity) | 5 (90% or more of herbicidal effect and crop phytotoxicity) |
| CCCS(=O)(=O)Oc1c(C(=O)c2ccc(C(F)(F)F)n(CCCS(C)(=O)=O)c2=O)cnn1C [IV-61] | 5 (90% or more of herbicidal effect and crop phytotoxicity) | 5 (90% or more of herbicidal effect and crop phytotoxicity) | 5 (90% or more of herbicidal effect and crop phytotoxicity) |
| Cn1ncc(C(=O)c2ccc(C(F)(F)F)n(C)c2=O)c1OCc1ccc(C(C)(C)C)cc1 [IV-192] | 5 (90% or more of herbicidal effect and crop phytotoxicity) | 5 (90% or more of herbicidal effect and crop phytotoxicity) | 5 (90% or more of herbicidal effect and crop phytotoxicity) |
| CSCCCn1c(C(F)(F)F)ccc(C(=O)c2cnn(C)c2O)c1=O [IV-56] | 5 (90% or more of herbicidal effect and crop phytotoxicity) | 5 (90% or more of herbicidal effect and crop phytotoxicity) | 5 (90% or more of herbicidal effect and crop phytotoxicity) |
| COc1cccc(Cn2c(C(F)(F)F)ccc(C(=O)c3cnn(C)c3O)c2=O)c1 [IV-103] | 4 (70 to less than 90% of herbicidal effect and crop phytotoxicity) | 4 (70 to less than 90% of herbicidal effect and crop phytotoxicity) | 5 (90% or more of herbicidal effect and crop phytotoxicity) |
| Cn1c(C(F)(F)Cl)ccc(C(=O)C2=C(O)CCCC2=O)c1=O [I-225] | 5 (90% or more of herbicidal effect and crop phytotoxicity) | 5 (90% or more of herbicidal effect and crop phytotoxicity) | 5 (90% or more of herbicidal effect and crop phytotoxicity) |
| O=C1CCCC(O)=C1C(=O)c1ccc(C(F)(F)F)n(CS(=O)(=O)CC(F)(F)F)c1=O [I-64] | 5 (90% or more of herbicidal effect and crop phytotoxicity) | 4 (70 to less than 90% of herbicidal effect and crop phytotoxicity) | 5 (90% or more of herbicidal effect and crop phytotoxicity) |
| CCCCCCNn1c(C(F)(F)F)ccc(C(=O)C2=C(O)CCCC2=O)c1=O [I-166] | 5 (90% or more of herbicidal effect and crop phytotoxicity) | 5 (90% or more of herbicidal effect and crop phytotoxicity) | 5 (90% or more of herbicidal effect and crop phytotoxicity) |
| COc1ccc(-n2c(C(F)(F)F)ccc(C(=O)c3cnn(C)c3O)c2=O)c(OC)c1 [IV-76] | 5 (90% or more of herbicidal effect and crop phytotoxicity) | 4 (70 to less than 90% of herbicidal effect and crop phytotoxicity) | 5 (90% or more of herbicidal effect and crop phytotoxicity) |
| Cc1nn(C)c(O)c1C(=O)c1ccc(C(F)(F)F)n(CC2CCCO2)c1=O (stereo not drawn) [IV-238] | 5 (90% or more of herbicidal effect and crop phytotoxicity) | 4 (70 to less than 90% of herbicidal effect and crop phytotoxicity) | 5 (90% or more of herbicidal effect and crop phytotoxicity) |
| O=C(Nn1c(C(F)(F)F)ccc(C(=O)C2=C(O)CCCC2=O)c1=O)OCc1ccccc1 [I-196] | 4 (70 to less than 90% of herbicidal effect and crop phytotoxicity) | 5 (90% or more of herbicidal effect and crop phytotoxicity) | 5 (90% or more of herbicidal effect and crop phytotoxicity) |
| COc1ccc(-n2c(C(F)(F)F)ccc(C(=O)c3cnn(C)c3O)c2=O)cc1 [IV-66] | 5 (90% or more of herbicidal effect and crop phytotoxicity) | 5 (90% or more of herbicidal effect and crop phytotoxicity) | 5 (90% or more of herbicidal effect and crop phytotoxicity) |
| Cc1ccc(C(=O)C2=C(O)CCCC2=O)c(=O)n1-c1ccc(C(F)(F)F)cc1 [I-236] | 5 (90% or more of herbicidal effect and crop phytotoxicity) | 5 (90% or more of herbicidal effect and crop phytotoxicity) | 5 (90% or more of herbicidal effect and crop phytotoxicity) |
| CCOC(=O)Nn1c(C(F)(F)F)ccc(C(=O)C2=C(O)CCCC2=O)c1=O [I-192] | 5 (90% or more of herbicidal effect and crop phytotoxicity) | 5 (90% or more of herbicidal effect and crop phytotoxicity) | 5 (90% or more of herbicidal effect and crop phytotoxicity) |
| CCCS(=O)(=O)Oc1c(C(=O)c2ccc(C(F)(F)F)n(-c3ccc(Cl)c(OC)c3)c2=O)cnn1C [IV-91] | 5 (90% or more of herbicidal effect and crop phytotoxicity) | 4 (70 to less than 90% of herbicidal effect and crop phytotoxicity) | 4 (70 to less than 90% of herbicidal effect and crop phytotoxicity) |
| CC(CCn1c(C(F)(F)F)ccc(C(=O)C2=C(O)C(C)CCC(C)C2=O)c1=O)=C(F)F (stereo not drawn) [II-27] | 5 (90% or more of herbicidal effect and crop phytotoxicity) | 5 (90% or more of herbicidal effect and crop phytotoxicity) | 5 (90% or more of herbicidal effect and crop phytotoxicity) |
| Cc1ccc(S(=O)(=O)Oc2c(C(=O)c3ccc(C(F)(F)F)n(CC4CCCO4)c3=O)cnn2C)cc1 (stereo not drawn) [IV-141] | 5 (90% or more of herbicidal effect and crop phytotoxicity) | 5 (90% or more of herbicidal effect and crop phytotoxicity) | 5 (90% or more of herbicidal effect and crop phytotoxicity) |
| Cn1ncc(C(=O)c2ccc(C(F)(F)F)n(CC3CCCO3)c2=O)c1OCc1ccc(C(F)(F)F)cc1 (stereo not drawn) [IV-137] | 3 (50 to less than 70% of herbicidal effect and crop phytotoxicity) | 4 (70 to less than 90% of herbicidal effect and crop phytotoxicity) | 4 (70 to less than 90% of herbicidal effect and crop phytotoxicity) |
| Cn1ncc(C(=O)c2ccc(C(F)(F)F)n(C)c2=O)c1OCc1ccc(Cl)cc1 [IV-191] | 5 (90% or more of herbicidal effect and crop phytotoxicity) | 5 (90% or more of herbicidal effect and crop phytotoxicity) | 5 (90% or more of herbicidal effect and crop phytotoxicity) |
| Cn1c(C(F)(F)F)ccc(C(=O)C2=C(Sc3c(Cl)cccc3Cl)CCCC2=O)c1=O [II-15] | 5 (90% or more of herbicidal effect and crop phytotoxicity) | 5 (90% or more of herbicidal effect and crop phytotoxicity) | 5 (90% or more of herbicidal effect and crop phytotoxicity) |
| Cn1c(C(F)(F)F)ccc(C(=O)C2=C(O)C(C)(C)CCC2=O)c1=O [II-2] | 5 (90% or more of herbicidal effect and crop phytotoxicity) | 5 (90% or more of herbicidal effect and crop phytotoxicity) | 5 (90% or more of herbicidal effect and crop phytotoxicity) |
| O=C1CCCC(O)=C1C(=O)c1ccc(C(F)(F)F)n(Cc2ccc([N+](=O)[O-])cc2)c1=O [I-117] | 5 (90% or more of herbicidal effect and crop phytotoxicity) | 5 (90% or more of herbicidal effect and crop phytotoxicity) | 5 (90% or more of herbicidal effect and crop phytotoxicity) |
